Measurements: paper PMC7774954, “Interactomic affinity profiling by holdup assay: Acetylation and distal residues impact the PDZome-binding specificity of PTEN phosphatase” (PLoS ONE, 2020)
*1 amine or outer side, *2 acyl side, *3 side chain or, on linkers, in order; H or OH if unused. Where a SMILES comes first, the peptide text is derived from it. The star is where a group is joined. X1 = O=C(CCCC[C@@H]1SC[C@@H]2NC(=O)N[C@@H]21)NCCCOCCOCCOCCCN*; Suc = O=C(CCC(=O)[*:2])[*:1]

Tests used:
GRIP1-7 = assay: Holdup assay, GRIP1-7; format: binding, human
GRASP-1 = GRASP-1 (Homo sapiens, UniProt Q7Z6J2); assay: Holdup assay, GRASP-1; format: binding
Sequence of GRASP-1 (Q7Z6J2 100-189): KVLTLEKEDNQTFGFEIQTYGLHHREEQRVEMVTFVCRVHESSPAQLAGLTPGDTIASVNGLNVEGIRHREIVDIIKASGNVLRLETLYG

GRIP1-3 = assay: Holdup assay, GRIP1-3; format: binding, human
LDB3-1 = assay: Holdup assay, LDB3-1; format: binding, human
DLG5-1 = assay: Holdup assay, DLG5-1; format: binding, human
CASK-1 = assay: Holdup assay, CASK-1; format: binding, human
MAGI1 PDZ 3 = biological target: T1, MAGI1 PDZ 3 (Homo sapiens, UniProt Q96QZ7); assay: Holdup assay, MAGI1-3; format: binding
T1 construct: made in house; host or cells: E. coli
T1 sequence (Q96QZ7 643-721 limits assumed): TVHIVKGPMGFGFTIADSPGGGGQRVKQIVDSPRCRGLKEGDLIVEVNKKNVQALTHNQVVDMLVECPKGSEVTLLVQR
Method: (§1) The holdup assay was performed on a Tecan freedom Evo200 robot with 384-well plates in singlicate for the three 11-mer PTEN variants and the 13-mer PTEN peptide as described in [31, 32]. Briefly, prior to interaction assay, 2.5 μL of streptavidin resin was saturated in each well with 20 μL of biotinylated PBM peptides (42 μM) and then washed twice with an excess of free biotin, while the reference resin was incubated only with biotin. Right before the holdup experiment, the PDZ library was spiked with an internal standard of lysozyme. Then, the biotin- or PBM-saturated resin was incubated, each in a distinct well of a 384-well plate, with complete cell lysates diluted so that the concentration of the tag-PDZ present in the crude extract is adjusted at 4 μM. After a sufficient time to reach complex equilibrium (15 min.), a fast and mild filtration step is performed and the tag-PDZ concentrations were measured by capillary electrophoresis instrument (LabChip GXII, PerkinElmer, Massachusets, USA). Standard markers were used to convert migration time into molecular weight on the LabChip software and inappropriate molecular weight markers were corrected or excluded.
(§2) For filtered data, the BI was extracted with the following equation (Eq 1) that estimates the depleted fraction after superimposition of the sample and reference electropherograms: BI=Iref−Ilig/Iref (1) where Iref and Ilig are the intensities of the tag-PDZ peaks measured, for each PDZ domain/PBM peptide interaction pair, in the biotin reference and the PBM electropherograms, respectively.
(§3) BIs were transformed into dissociation constants (KD) using the following formula: KD=([PDZtot]−BI·[PDZtot])·([PBMtot]−BI·[PDZtot])/BI·[PDZtot] (2) where [PDZtot] and [PBMtot] correspond to the total concentrations of the PDZ domain (usually around 4 μM) and the PBM peptide used during the assay. Since the PBMtot concentration in the resin during the holdup assay parameter may differ from one peptide to another and remains unknown, it is impossible to directly convert BI values into KD constants. We systematically determined the KD constants for a subset of PDZ/PBM pairs by competitive FP. […] For each PBM, the average peptide concentration was calculated after outlier rejection based on the absolute distances from the median as compared to three times the standard deviation (3σ rule), with never more than 2 values rejected.

INADL-7 = INADL-7 (Homo sapiens, UniProt Q8NI35); assay: Holdup assay, INADL-7; format: binding
Sequence of INADL-7 (Q8NI35 whole entry): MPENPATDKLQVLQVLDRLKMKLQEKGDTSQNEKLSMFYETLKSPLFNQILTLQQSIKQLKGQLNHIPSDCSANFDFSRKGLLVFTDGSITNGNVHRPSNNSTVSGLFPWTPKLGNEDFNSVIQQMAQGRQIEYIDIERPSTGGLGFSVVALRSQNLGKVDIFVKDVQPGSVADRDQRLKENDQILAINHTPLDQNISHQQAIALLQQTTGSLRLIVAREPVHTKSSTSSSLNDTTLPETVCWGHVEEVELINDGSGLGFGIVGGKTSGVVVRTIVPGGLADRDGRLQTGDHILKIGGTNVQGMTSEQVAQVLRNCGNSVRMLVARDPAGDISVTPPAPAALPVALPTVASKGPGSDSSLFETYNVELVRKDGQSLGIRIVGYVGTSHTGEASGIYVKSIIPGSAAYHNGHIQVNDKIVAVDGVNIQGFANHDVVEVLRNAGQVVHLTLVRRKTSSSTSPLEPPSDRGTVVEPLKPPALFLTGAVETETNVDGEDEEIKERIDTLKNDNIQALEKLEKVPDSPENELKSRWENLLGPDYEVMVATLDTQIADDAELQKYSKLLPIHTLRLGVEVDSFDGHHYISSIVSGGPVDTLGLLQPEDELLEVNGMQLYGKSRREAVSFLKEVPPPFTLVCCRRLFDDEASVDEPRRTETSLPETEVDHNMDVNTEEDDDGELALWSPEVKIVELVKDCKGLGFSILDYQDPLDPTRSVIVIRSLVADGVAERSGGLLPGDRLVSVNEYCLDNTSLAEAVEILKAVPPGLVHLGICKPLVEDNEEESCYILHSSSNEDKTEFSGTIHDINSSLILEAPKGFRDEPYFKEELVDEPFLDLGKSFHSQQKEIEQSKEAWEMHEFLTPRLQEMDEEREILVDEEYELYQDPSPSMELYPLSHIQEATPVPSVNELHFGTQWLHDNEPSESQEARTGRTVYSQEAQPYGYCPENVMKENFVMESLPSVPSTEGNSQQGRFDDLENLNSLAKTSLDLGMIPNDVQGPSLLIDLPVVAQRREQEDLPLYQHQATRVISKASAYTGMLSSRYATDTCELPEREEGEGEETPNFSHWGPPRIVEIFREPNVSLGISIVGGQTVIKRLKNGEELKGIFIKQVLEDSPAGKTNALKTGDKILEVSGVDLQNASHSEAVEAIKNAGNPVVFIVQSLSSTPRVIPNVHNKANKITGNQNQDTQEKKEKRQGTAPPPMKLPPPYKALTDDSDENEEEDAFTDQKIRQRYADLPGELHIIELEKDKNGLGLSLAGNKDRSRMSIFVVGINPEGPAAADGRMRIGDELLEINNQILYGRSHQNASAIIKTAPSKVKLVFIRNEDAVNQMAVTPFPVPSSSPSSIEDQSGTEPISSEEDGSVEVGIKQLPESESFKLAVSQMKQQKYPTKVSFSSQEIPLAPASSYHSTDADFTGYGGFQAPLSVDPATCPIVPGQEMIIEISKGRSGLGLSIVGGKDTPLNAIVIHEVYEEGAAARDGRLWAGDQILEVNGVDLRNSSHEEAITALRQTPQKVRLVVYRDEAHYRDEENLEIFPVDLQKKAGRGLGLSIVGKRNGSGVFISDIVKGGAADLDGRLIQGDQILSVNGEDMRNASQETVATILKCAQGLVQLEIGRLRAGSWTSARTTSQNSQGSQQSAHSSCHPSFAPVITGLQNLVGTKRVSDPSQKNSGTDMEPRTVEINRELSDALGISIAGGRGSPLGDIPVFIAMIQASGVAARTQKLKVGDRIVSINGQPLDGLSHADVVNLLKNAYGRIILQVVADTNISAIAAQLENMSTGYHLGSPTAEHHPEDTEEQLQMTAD

DLG1-1 = DLG1-1 (Homo sapiens, UniProt Q12959); assay: Holdup assay, DLG1-1; format: binding
DLG1 PDZ 2 = biological target: T2, DLG1 PDZ 2 (Homo sapiens, UniProt Q12959); assay: Holdup assay, DLG1-2; format: binding
T2 construct: made in house; host or cells: E. coli
Method: as §1, §2, §3

APBA3-2 = assay: Holdup assay, APBA3-2; format: binding, human
CARD11-1 = assay: Holdup assay, CARD11-1; format: binding, human
DLG5-2 = assay: Holdup assay, DLG5-2; format: binding, human
ARHGAP23-1 = assay: Holdup assay, ARHGAP23-1; format: binding, human
GRIP1-5 = assay: Holdup assay, GRIP1-5; format: binding, human
DLG3-1 = assay: Holdup assay, DLG3-1; format: binding, human
SNTB2 PDZ 1 = biological target: T3, SNTB2 PDZ 1 (Homo sapiens, UniProt Q13425); assay: Holdup assay, SNTB2-1; format: binding; details: PDZ domain SNTB2-1
T3 construct: made in house; host or cells: E. coli
T3 sequence (Q13425 115-198 limits assumed): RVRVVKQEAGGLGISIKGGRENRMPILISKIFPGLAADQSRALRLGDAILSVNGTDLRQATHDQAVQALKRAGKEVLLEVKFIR
Method: as §1, §2, §3

INADL-8 = INADL-8 (Homo sapiens, UniProt Q8NI35); assay: Holdup assay, INADL-8; format: binding
Sequence of INADL-8 (Q8NI35 whole entry): as the sequence (Q8NI35 whole entry) above

GORASP1-1 = GORASP1-1 (Homo sapiens, UniProt Q9BQQ3); assay: Holdup assay, GORASP1-1; format: binding
Sequence of GORASP1-1 (Q9BQQ3 2-440): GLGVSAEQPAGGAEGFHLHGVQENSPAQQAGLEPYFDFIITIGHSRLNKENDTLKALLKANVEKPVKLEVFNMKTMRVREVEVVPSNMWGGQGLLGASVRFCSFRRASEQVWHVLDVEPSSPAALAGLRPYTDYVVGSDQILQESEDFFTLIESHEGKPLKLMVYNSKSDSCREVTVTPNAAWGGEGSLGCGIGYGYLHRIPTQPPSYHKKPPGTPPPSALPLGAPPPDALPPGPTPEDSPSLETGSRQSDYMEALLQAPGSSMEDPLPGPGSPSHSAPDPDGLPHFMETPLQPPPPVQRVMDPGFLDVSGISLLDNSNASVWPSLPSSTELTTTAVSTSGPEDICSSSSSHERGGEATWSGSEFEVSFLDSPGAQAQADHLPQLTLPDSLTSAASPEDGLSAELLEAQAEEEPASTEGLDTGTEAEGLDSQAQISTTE

FRMPD2-1 = assay: Holdup assay, FRMPD2-1; format: binding, human
LNX2-4 = assay: Holdup assay, LNX2-4; format: binding, human
INADL-2 = assay: Holdup assay, INADL-2; format: binding, human
DLG4-2 = DLG4-2 (Homo sapiens, UniProt P78352); assay: Holdup assay, DLG4-2; format: binding
Sequence of DLG4-2 (P78352 160-246): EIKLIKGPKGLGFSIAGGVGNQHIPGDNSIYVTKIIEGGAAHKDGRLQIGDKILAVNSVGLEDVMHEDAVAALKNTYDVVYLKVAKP

MAST3 PDZ 1 = biological target: T4, MAST3 PDZ 1 (Homo sapiens, UniProt O60307); assay: Holdup assay, MAST3-1; format: binding
T4 construct: made in house; host or cells: E. coli
T4 sequence (O60307 950-1038 limits assumed): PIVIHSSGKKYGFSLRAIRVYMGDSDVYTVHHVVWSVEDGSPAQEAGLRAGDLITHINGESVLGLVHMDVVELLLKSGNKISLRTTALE
Method: as §1, §2, §3

MAGI2-6 = MAGI2-6 (Homo sapiens, UniProt Q86UL8); assay: Holdup assay, MAGI2-6; format: binding
Sequence of MAGI2-6 (Q86UL8 1147-1229): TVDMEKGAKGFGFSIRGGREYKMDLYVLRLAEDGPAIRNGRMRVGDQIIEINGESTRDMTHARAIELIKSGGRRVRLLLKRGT

ARHGAP21-1 = assay: Holdup assay, ARHGAP21-1; format: binding, human

**Q.** How did the BI (GRIP1-7) turn out when `CC[C@H](C)[C@H](NC(=O)[C@H](CCC(N)=O)NC(=O)[C@@H](NC(=O)[C@H](Cc1c[nH]cn1)NC(=O)[C@H](CCC(N)=O)NC(=O)[C@H](CC(=O)O)NC(=O)[C@H](CCC(=O)O)NC(=O)[C@H](CC(=O)O)NC(=O)CCC(=O)NCCCOCCOCCOCCCNC(=O)CCCC[C@@H]1SC[C@@H]2NC(=O)N[C@@H]21)[C@@H](C)O)C(=O)N[C@H](C(=O)N[C@@H](CCCNC(=N)N)C(=O)N[C@H](C(=O)O)C(C)C)[C@@H](C)O` [PTEN_KR] ({X1-Suc}-DEDQHTQITRV-OH) was run?
**A.** -0.06

**Q.** What about the LogKD (GRIP1-7) of the same compound?
**A.** 3.655

**Q.** What about the Kd (GRASP-1) of the same compound?
**A.** 16.8 µM

**Q.** And the BI (GRASP-1; GRASP-1)?
**A.** 0.575

**Q.** And the BI (GRIP1-3)?
**A.** -0.034

**Q.** And the LogKD (GRIP1-3)?
**A.** 3.655

**Q.** What about the BI (LDB3-1) of the same compound?
**A.** -0.05

**Q.** What about the LogKD (LDB3-1) of the same compound?
**A.** 3.655

**Q.** What about the BI (DLG5-1) of the same compound?
**A.** -0.041

**Q.** What about the LogKD (DLG5-1) of the same compound?
**A.** 3.655

**Q.** What about the LogKD (CASK-1) of the same compound?
**A.** 3.655

**Q.** What about the Kd (MAGI1 PDZ 3) of the same compound?
**A.** 14.7 µM

**Q.** And the BI (MAGI1 PDZ 3; MAGI1-3)?
**A.** 0.605

**Q.** What about the BI (INADL-7) of the same compound?
**A.** 0.176

**Q.** What about the Kd (DLG1-1) of the same compound?
**A.** 88.1 µM

**Q.** And the BI (DLG1-1; DLG1-1)?
**A.** 0.215

**Q.** What about the Kd (DLG1 PDZ 2) of the same compound?
**A.** 70.8 µM

**Q.** What about the BI (DLG1 PDZ 2; DLG1-2) of the same compound?
**A.** 0.253

**Q.** And the BI (APBA3-2)?
**A.** 0.086

**Q.** And the LogKD (APBA3-2)?
**A.** 3.655

**Q.** What about the BI (CARD11-1) of the same compound?
**A.** -0.097

**Q.** What about the LogKD (CARD11-1) of the same compound?
**A.** 3.655

**Q.** And the BI (DLG5-2)?
**A.** -0.028

**Q.** And the LogKD (DLG5-2)?
**A.** 3.655

**Q.** And the BI (ARHGAP23-1)?
**A.** -0.018

**Q.** What about the LogKD (ARHGAP23-1) of the same compound?
**A.** 3.655

**Q.** What about the BI (GRIP1-5) of the same compound?
**A.** 0.003

**Q.** What about the LogKD (GRIP1-5) of the same compound?
**A.** 3.655

**Q.** What about the BI (DLG3-1) of the same compound?
**A.** 0.066

**Q.** And the LogKD (DLG3-1)?
**A.** 3.655

**Q.** What about the BI (SNTB2 PDZ 1) of the same compound?
**A.** 0.009

**Q.** What about the BI (INADL-8) of the same compound?
**A.** 0.532

**Q.** What about the Kd (INADL-8) of the same compound?
**A.** 20.1 µM

**Q.** What about the BI (GORASP1-1) of the same compound?
**A.** 0.122

**Q.** What about the BI (FRMPD2-1) of the same compound?
**A.** -0.015

**Q.** What about the LogKD (FRMPD2-1) of the same compound?
**A.** 3.655

**Q.** What about the BI (LNX2-4) of the same compound?
**A.** -0.045

**Q.** And the LogKD (LNX2-4)?
**A.** 3.655

**Q.** What about the BI (INADL-2) of the same compound?
**A.** 0.064

**Q.** And the LogKD (INADL-2)?
**A.** 3.655

**Q.** What about the BI (DLG4-2) of the same compound?
**A.** 0.284

**Q.** And the Kd (DLG4-2)?
**A.** 60.2 µM

**Q.** What about the Kd (MAST3 PDZ 1) of the same compound?
**A.** 81.6 µM

**Q.** And the BI (MAST3 PDZ 1; MAST3-1)?
**A.** 0.228

**Q.** What about the BI (MAGI2-6) of the same compound?
**A.** 0.358

**Q.** What about the Kd (MAGI2-6) of the same compound?
**A.** 42.3 µM

**Q.** And the BI (ARHGAP21-1)?
**A.** 0.074

**Q.** What about the LogKD (ARHGAP21-1) of the same compound?
**A.** 3.655
